Experimental data: patent US8415469B2, “Compounds and methods for kinase modulation, and indications therefor” (Plexxikon Inc., priority 2005, dated 2013)

Experiments:
Type in all cases: biochemical
[1] = molecular target: T1, c-Raf-1 (Homo sapiens, UniProt P04049); assay: AlphaScreen kinase assay, c-Raf-1; details: read-out: IC50, activity toward kinase c-Raf-1
T1 construct: purchased Upstate Biotechnology

[2] = molecular target: T2, Fms (Homo sapiens, UniProt P07333); assay: AlphaScreen kinase assay, Fms; details: read-out: IC50, activity toward kinase Fms
T2 construct: purchased Upstate Biotechnology
T2 sequence (P07333 20-972): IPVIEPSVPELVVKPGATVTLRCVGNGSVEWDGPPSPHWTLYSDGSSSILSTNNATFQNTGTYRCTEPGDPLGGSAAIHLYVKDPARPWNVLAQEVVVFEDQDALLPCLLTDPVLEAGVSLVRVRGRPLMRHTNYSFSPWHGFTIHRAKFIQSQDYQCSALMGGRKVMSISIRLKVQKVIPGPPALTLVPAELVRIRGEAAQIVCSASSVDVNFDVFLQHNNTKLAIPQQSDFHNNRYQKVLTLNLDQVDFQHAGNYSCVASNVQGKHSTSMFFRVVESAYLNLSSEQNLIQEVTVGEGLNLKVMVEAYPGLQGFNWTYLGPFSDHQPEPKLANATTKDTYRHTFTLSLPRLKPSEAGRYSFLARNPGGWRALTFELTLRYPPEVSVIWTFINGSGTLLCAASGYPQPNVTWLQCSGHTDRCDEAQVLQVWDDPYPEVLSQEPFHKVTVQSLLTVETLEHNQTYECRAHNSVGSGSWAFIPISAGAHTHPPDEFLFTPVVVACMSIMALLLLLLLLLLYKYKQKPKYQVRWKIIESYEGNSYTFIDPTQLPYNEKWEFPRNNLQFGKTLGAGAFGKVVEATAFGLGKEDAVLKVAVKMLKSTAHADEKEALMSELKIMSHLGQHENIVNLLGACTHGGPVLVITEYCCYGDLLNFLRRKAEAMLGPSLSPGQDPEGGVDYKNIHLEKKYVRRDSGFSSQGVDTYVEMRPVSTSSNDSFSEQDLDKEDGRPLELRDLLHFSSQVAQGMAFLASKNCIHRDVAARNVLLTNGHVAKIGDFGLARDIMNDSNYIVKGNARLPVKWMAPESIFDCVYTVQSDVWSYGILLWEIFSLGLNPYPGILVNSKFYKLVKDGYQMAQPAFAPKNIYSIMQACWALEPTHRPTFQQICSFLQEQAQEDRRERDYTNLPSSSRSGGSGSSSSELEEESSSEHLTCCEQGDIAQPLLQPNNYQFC

[3] = molecular target: T3, B-Raf (Homo sapiens, UniProt P15056); assay: AlphaScreen kinase assay, B-Raf; details: read-out: IC50, activity toward kinase B-Raf
T3 construct: purchased Upstate Biotechnology
T3 sequence (P15056 whole entry): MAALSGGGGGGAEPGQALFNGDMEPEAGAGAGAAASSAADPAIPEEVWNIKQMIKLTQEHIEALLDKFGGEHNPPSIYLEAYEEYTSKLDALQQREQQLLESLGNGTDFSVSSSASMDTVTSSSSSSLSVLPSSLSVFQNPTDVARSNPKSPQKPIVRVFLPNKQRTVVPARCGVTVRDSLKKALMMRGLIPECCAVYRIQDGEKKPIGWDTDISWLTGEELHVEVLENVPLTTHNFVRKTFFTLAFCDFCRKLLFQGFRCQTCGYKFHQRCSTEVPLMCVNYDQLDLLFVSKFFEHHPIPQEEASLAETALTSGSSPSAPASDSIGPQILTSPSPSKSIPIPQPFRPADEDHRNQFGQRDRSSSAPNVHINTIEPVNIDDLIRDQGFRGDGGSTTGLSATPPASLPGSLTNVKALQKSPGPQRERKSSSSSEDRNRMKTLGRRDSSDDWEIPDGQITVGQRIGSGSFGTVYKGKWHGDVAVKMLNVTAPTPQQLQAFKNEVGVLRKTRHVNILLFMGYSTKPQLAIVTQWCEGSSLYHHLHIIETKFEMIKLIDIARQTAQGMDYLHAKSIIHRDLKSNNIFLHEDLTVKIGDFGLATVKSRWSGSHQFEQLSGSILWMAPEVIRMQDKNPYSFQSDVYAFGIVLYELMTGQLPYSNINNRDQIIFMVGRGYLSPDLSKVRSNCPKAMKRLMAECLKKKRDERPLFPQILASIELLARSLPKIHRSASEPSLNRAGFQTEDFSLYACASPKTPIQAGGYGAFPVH

[4] = molecular target: T4, B-Raf V600E (Homo sapiens, UniProt P15056, V600E); assay: AlphaScreen kinase assay, B-Raf V600E; details: read-out: IC50, activity toward kinase B-Raf V600E
T4 construct: P4254. pFastBacBD-CDC37 BRAF D437-K722-X, V600E; His6 with pFastBac HT leader (TEV site) (N); made in house; host or cells: Sf9 (baculovirus; chaperone CDC37 co-expressed)
T4 sequence (P15056 with tags, fused parts or gaps V600E): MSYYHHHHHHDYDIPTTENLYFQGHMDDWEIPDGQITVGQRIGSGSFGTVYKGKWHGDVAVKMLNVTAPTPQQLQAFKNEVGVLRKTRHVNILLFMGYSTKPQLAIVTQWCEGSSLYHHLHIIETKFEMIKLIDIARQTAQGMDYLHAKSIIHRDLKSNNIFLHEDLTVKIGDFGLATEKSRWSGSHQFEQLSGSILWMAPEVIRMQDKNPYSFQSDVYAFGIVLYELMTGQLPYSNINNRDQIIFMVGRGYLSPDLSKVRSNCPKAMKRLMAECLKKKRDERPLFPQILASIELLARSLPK

[5] = molecular target: T5, Kit (Homo sapiens, UniProt P10721); assay: AlphaScreen kinase assay, Kit; details: read-out: IC50, activity toward kinase Kit
T5 construct: P1332.N6 BI PTP KIT M552-K948-X COD; His6 (N); made in house; host or cells: E. coli (PTP1B co-expressed)
T5 sequence (P10721 with tags, fused parts or gaps): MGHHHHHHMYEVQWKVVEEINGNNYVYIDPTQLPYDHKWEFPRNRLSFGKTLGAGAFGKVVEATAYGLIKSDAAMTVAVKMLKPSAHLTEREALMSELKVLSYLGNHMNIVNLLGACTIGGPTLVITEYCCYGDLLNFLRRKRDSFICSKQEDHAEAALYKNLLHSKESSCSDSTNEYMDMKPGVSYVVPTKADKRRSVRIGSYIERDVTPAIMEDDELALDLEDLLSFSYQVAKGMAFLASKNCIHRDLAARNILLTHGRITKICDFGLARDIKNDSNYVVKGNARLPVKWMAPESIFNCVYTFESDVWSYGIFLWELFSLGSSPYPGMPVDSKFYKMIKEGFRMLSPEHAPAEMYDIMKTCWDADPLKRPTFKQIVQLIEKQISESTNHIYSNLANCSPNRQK

[6] = molecular target: T6, FGFR1 (Homo sapiens, UniProt P11362, C488A/C584S); assay: AlphaScreen kinase assay, FGFR1; details: read-out: IC50, activity toward kinase FGFR
T6 construct: P1351.pET N6 BI-PTP FGFR A458-E765-X C488A, C584S; made in house; host or cells: E. coli (PTP1B co-expressed)
T6 sequence (P11362 458-765 C488A/C584S): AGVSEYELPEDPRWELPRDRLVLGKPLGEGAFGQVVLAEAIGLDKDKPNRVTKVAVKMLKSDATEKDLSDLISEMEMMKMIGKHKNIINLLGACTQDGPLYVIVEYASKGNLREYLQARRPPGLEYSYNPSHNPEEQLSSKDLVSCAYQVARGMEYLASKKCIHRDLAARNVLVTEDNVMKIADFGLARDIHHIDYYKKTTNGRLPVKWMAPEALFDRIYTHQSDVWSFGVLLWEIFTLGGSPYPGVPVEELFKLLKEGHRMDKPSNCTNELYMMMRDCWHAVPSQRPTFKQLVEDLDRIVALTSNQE

Measured: IC50

T1 sequence (P04049 whole entry): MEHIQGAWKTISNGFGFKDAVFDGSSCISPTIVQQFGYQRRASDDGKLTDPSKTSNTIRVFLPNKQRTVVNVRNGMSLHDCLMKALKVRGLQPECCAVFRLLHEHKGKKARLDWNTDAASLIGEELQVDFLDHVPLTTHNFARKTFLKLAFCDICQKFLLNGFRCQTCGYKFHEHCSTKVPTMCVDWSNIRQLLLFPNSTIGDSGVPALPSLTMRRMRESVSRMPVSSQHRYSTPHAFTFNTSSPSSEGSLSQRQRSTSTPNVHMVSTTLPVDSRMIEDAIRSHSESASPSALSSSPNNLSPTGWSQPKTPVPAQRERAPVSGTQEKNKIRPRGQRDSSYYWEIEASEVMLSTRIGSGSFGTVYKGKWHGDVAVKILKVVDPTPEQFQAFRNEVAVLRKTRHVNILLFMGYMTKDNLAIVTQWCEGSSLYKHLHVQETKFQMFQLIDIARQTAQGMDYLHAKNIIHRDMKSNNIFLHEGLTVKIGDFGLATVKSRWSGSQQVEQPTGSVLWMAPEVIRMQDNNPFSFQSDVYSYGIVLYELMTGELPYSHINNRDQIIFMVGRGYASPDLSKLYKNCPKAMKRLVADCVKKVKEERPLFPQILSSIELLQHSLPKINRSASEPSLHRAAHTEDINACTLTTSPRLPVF

O=C(Nc1cccc(C(=O)c2c[nH]c3ncc(Cl)cc23)c1)Nc1cc(C(F)(F)F)ccc1Cl [Compound P-1738, 1-[3-(5-Chloro-1H-pyrrolo[2,3-b]pyridine-3-carbonyl)-phenyl]-3-(2-chloro-5-trifluoromethyl-phenyl)-urea]
≤ 10 µM: [1] | [2] | [3] | [4]

O=C(Nc1cccc(C(=O)c2c[nH]c3ncccc23)c1)Nc1cc(C(F)(F)F)ccc1Cl [Compound P-1712, 1-(2-Chloro-5-trifluoromethyl-phenyl)-3-[3-(1H-pyrrolo[2,3-b]pyridine-3-carbonyl)-phenyl]-urea]
not listed: [6]
≤ 10 µM: all other assays above

CCCS(=O)(=O)Nc1ccc(F)c(C(=O)c2c[nH]c3ncc(C(=O)NCC)cc23)c1F [Compound P-1630, 3-[2,6-difluoro-3-(propane-1-sulfonylamino)-benzoyl]-1H-pyrrolo[2,3-b]pyridine-5-carboxylic acid ethylamide]
not listed: [6]
≤ 10 µM: all other assays above

CCCS(=O)(=O)Nc1ccc(Cl)c(C(=O)c2c[nH]c3ncc(Cl)cc23)c1F [Compound P-1004, Propane-1-sulfonic acid [4-chloro-3-(5-chloro-1H-pyrrolo[2,3-b]pyridine-3-carbonyl)-2-fluoro-phenyl]-amide]
≤ 10 µM: [1] | [3] | [4] | [6]

O=C(Nc1ccc(F)c(C(=O)c2c[nH]c3ncccc23)c1F)OCc1ccccc1 [Compound P-0894, [2,4-Difluoro-3-(1H-pyrrolo[2,3-b]pyridine-3-carbonyl)-phenyl]-carbamic acid benzyl ester]
≤ 10 µM: [1] | [3] | [4] | [6]

CCc1cnc2[nH]cc(C(=O)c3c(F)ccc(NS(=O)(=O)c4ccc(C(F)(F)F)cc4)c3F)c2c1 [Compound P-1783, N-[3-(5-Ethyl-1H-pyrrolo[2,3-b]pyridine-3-carbonyl)-2,4-difluoro-phenyl]-4-trifluoromethyl-benzenesulfonamide]
not listed: [6]
≤ 10 µM: all other assays above

CCCS(=O)(=O)Nc1ccc(F)c(C(=O)c2c[nH]c3ncc(-c4ccc(N5CCN(C)CC5)nc4)cc23)c1F [Compound P-1882, Propane-1-sulfonic acid (2,4-difluoro-3-{5-[6-(4-methyl-piperazine-1-yl)-pyridin-3-yl]-1H-pyrrolo[2,3-b]pyridine-3-carbonyl}-phenyl)-amide]
not listed: [6]
≤ 10 µM: all other assays above

COc1ccc(F)c(C(=O)c2c[nH]c3ncc(Br)cc23)c1F [Compound P-1386, (5-Bromo-1H-pyrrolo[2,3-b]pyridin-3-yl)-(2,6-difluoro-3-methoxy-phenyl)-methanone]
≤ 10 µM: all assays above

COC(c1ccc(N(Cc2ccc(Cl)cc2)C(=O)OC(C)(C)C)nc1)c1c[nH]c2ncc(Br)cc12 (stereo not shown) [Compound P-0779]
≤ 10 µM: [1] | [3] | [4]

O=C(Nc1ccccc1)Nc1cccc(C(=O)c2c[nH]c3ncc(Cl)cc23)c1 [Compound P-1733, 1-[3-(5-Chloro-1H-pyrrolo[2,3-b]pyridine-3-carbonyl)-phenyl]-3-phenyl-urea]
not listed: [6]
≤ 10 µM: all other assays above

O=C(Nc1cccc(C(=O)c2c[nH]c3ncccc23)c1)Nc1cccc(C(F)(F)F)c1F [Compound P-1714, 1-(2-Fluoro-3-trifluoromethyl-phenyl)-3-[3-(1H-pyrrolo[2,3-b]pyridine-3-carbonyl)-phenyl]-urea]
not listed: [6]
≤ 10 µM: all other assays above

COCCOc1cnc2[nH]cc(C(=O)c3c(F)ccc(NS(=O)(=O)c4cccc(F)c4)c3F)c2c1 [Compound P-1871, N-{2,4-Difluoro-3-[5-(2-methoxy-ethoxy)-1H-pyrrolo[2,3-b]pyridine-3-carbonyl]-phenyl}-3-fluoro-benzenesulfonamide]
not listed: [6]
≤ 10 µM: all other assays above

O=S(=O)(Nc1ccc(F)c(C(O)c2c[nH]c3ncc(Br)cc23)c1F)c1ccccc1 (stereo not shown) [Compound P-0959]
≤ 10 µM: [1] | [3] | [4]

Cc1nc2ccc(Nc3ccnc4[nH]ccc34)cc2s1 [Compound P-1014]
≤ 10 µM: [1] | [3] | [4]

COC(c1ccc(NCc2ccc(C(F)(F)F)cc2)nc1)c1c[nH]c2ncccc12 (stereo not shown) [Compound P-0382]
≤ 10 µM: [1] | [3] | [4]

CCCS(=O)(=O)Nc1ccc(Cl)c(C(=O)c2c[nH]c3ncc(-c4ccccc4)cc23)c1F [Compound P-0776, Propane-1-sulfonic acid [4-chloro-2-fluoro-3-(5-phenyl-1H-pyrrolo[2,3-b]pyridine-3-carbonyl)-phenyl]-amide]
not listed: [2]
≤ 10 µM: all other assays above

CCCS(=O)(=O)Nc1cccc(C(=O)c2c[nH]c3ncc(F)cc23)c1F [Compound P-1028, propane-1-sulfonic acid [2-fluoro-3-(5-fluoro-1H-pyrrolo[2,3-b]pyridine-3-carbonyl)-phenyl]-amide]
≤ 10 µM: [1] | [3] | [4]

O=S(=O)(Nc1ccc(F)c(C(O)c2c[nH]c3ncc(F)cc23)c1F)c1ccccc1 (stereo not shown) [Compound P-1003]
≤ 10 µM: [1] | [3] | [4]

O=C(Nc1cccc(C(=O)c2c[nH]c3ncc(Cl)cc23)c1)Nc1ccc(C(F)(F)F)cc1Cl [Compound P-1739, 1-[3-(5-Chloro-1H-pyrrolo[2,3-b]pyridine-3-carbonyl)-phenyl]-3-(2-chloro-4-trifluoromethyl-phenyl)-urea]
not listed: [6]
≤ 10 µM: all other assays above

CCCS(=O)(=O)Nc1ccc(F)c(C(=O)c2c[nH]c3ncc(-c4ccc(N5CCOCC5)nc4)cc23)c1F [Compound P-1881, Propane-1-sulfonic acid {2,4-difluoro-3-[5-(6-morpholin-4-yl-pyridin-3-yl)-1H-pyrrolo[2,3-b]pyridine-3-carbonyl]-phenyl}-amide]
not listed: [6]
≤ 10 µM: all other assays above

O=C(Nc1cccc(C(=O)c2c[nH]c3ncc(Cl)cc23)c1)Nc1cccc(C(F)(F)F)c1F [Compound P-1740, 1-[3-(5-Chloro-1H-pyrrolo[2 3-b]pyridine-3-carbonyl)-phenyl]-3-(2-fluoro-3-trifluoromethyl-phenyl)-urea]
not listed: [6]
≤ 10 µM: all other assays above
